Reference: patent publication US12410457B2, “Use of rosmarinic acid in cell bioproduction” (BRISTOL-MYERS SQUIBB COMPANY, priority 2015, dated 2025)

Key:
Type in all cases: cell-based, Chinese Hamster
aCD137 cells [1] = assay: Screen of antioxidants added to feed media in aCD137 fed-batch cell culture; conditions: for VCD %: day 8 (peak VCD), basal media not supplemented; for VCD % / Titer %: normalized to control without antioxidant; for Titer %: final titer harvested day 14
Experimental: Following the cell culture process described in Example 1, thirteen novel antioxidants (Table 1) were added to the feed media utilized in aCD137 cell culture. Three antioxidant concentrations were evaluated: 1 mM (Run #1-13), 0.25 mM (Run #17-29), and 0.0625 mM (Run #33-45). The antioxidants were dissolved in either pure ethanol or dimethyl sulfoxide (DMSO) at 50 mM stock concentration and added to feed media M154A1B at the designed final concentrations. The corresponding solvent negative controls were run number 16, 32, and 48. Two traditional antioxidants, ascorbic acid (Run #14, 30, and 46) and reduced glutathione (Run #15, 31, and 47), served as positive controls. The basal media M171IB was not supplemented with antioxidant.
(§1) Cells were cultured either in 50 ml spin tubes with an initial volume of 25 ml and a shaking speed of 300 rpm; or 250 ml shake flasks with an initial volume of 80˜100 ml and a shaking speed of 150 rpm on an orbital shaker with 25 mm throw distance. Temperature for the culture was controlled at constant 37° C. from the beginning of the culture and was shifted to 34° C. when viable cell density reached 10^6 cells/ml (usually on day 6) and CO2 was controlled at 6%.
(§2) A standard fed-batch culture process involved culturing the cells for 14 days with feeding beginning on day 3 at a feeding volume of 3.64% of initial culture volume. All the media used for cultures were chemically defined. Chemically defined feed media M154A1B is an enriched version of feed media F3.2. While the ingredient lists are the same between the two feed media, the concentration of a few of the ingredients is increased. Likewise, chemically defined basal media M17IB is an enriched version of basal media B1. For cultures in 7-liter or 500-liter reactors, dissolved oxygen (DO) was maintained at 50% and pH was controlled between 6.8 and 7.4.
(§3) Viable cell density (VCD) and cell viability were measured off-line using a CEDEX® automated cell counter (Innovatis AG). Culture samples were also analyzed off-line using a BIOPROFILE® 400 Analyzer to monitor pH, pCO2, pO2, glucose, glutamine, glutamate, lactate, and ammonium (Nova Biomedical Corporation). A Protein A HPLC method was used to measure protein titer, which were reported as normalized values.

aCD137 cells [2] = assay: aCD137 fed-batch culture with antioxidant in basal and/or feed media (shaker flask, 7-liter, 500-liter)
Experimental: In another embodiment, the dhfr-negative Chinese Hamster Ovary (CHO) cell line DG44 (Invitrogen Corp. Carlsbad, CA) were transfected in order to establish a stable cell line expressing a human IgG4 antibody.
The transfected CHO DG44 cells expressing the antibody was grown in the presence of antioxidants according to the methods of the invention.
as §1, §2, §3

myostatin cells = assay: Myostatin cell culture with antioxidant in basal and/or feed media (shake flask, 20-liter reactor)
Experimental: (§4) In another embodiment, the dhfr-negative Chinese Hamster Ovary (CHO) cell line DG44 (Invitrogen Corp. Carlsbad, CA) was transfected in order to establish a stable cell line expressing a recombinant human fusion protein.
(§5) The transfected CHO DG44 cells expressing the fusion protein was grown in the presence of antioxidants according to the methods of the invention.
as §1, §2, §3

aCD40L cells = assay: aCD40L cell shake flask culture with catechin in feed media; conditions: feed media 154A1 at 0.34 μM, 3.45 μM, 34.45 μM, 344.52 μM; basal media M17IB without catechin; shake flasks
Experimental: as §4, §5, §1
A standard fed-batch culture process involved culturing the cells for 14 days with feeding beginning on day 3 at a feeding volume of 3.64% of initial culture volume. All the media used for cultures were chemically defined. […]
as §3, with “A Protein A HPLC method was used to measure protein titer, which were reported as normalized values.” left out

[3] = 0.0625 mM in feed media M154A1B
[4] = feed at all three concentrations (0.0625-1 mM)
[5] = basal media M17IB 0.07 mM and feed media M154A1B 1 mM, shaker flask fed-batch
[6] = basal media M17IB at 0.1 mM, feed media M154A1B, 7-liter fed-batch
[7] = basal media at 0.1 mM, 500-liter production run
[8] = basal media B1 at 0.1 mM or feed media F3.2 at 1 mM or both, shake flask
[9] = basal media B1 at 0.1 mM, feed media F3.2, 20-liter bioreactor
[10] = feed media F3.2 at 1 mM, basal media B1, shaker flask fed-batch

Molecule	VCD % (aCD137 cells [1]; [3])	Titer % (aCD137 cells [1]; [3])	VCD % (aCD137 cells [1]; 0.25 mM in feed media M154A1B)	Titer % (aCD137 cells [1]; 0.25 mM in feed media M154A1B)	VCD % (aCD137 cells [1]; 1 mM in feed media M154A1B)	Titer % (aCD137 cells [1]; 1 mM in feed media M154A1B)	protein titer (aCD137 cells [1]; [4])	protein titer (aCD137 cells [2]; [5])	viable cell density (aCD137 cells [2]; [5])	other results
O=C(/C=C/c1ccc(O)c(O)c1)O[C@H](Cc1ccc(O)c(O)c1)C(=O)O [Rosmarinic acid, rosmarinic acid]	129.25%	132.14%	125.43%	146.83%	124.08%	180.16%	increased protein titer	increased	increased	ammonium formation (aCD137 cells [2]; [6]): reduced; lactate formation (aCD137 cells [2]; [6]): reduced; protein titer (aCD137 cells [2]; [6]): increased; viable cell density (aCD137 cells [2]; [6]): increased; lactate formation (aCD137 cells [2]; [7]): reduced; protein titer (aCD137 cells [2]; [7]): increased; viable cell density (aCD137 cells [2]; [7]): increased; ammonium formation (myostatin cells; [8]): reduced; protein titer (myostatin cells; [8]): increased; viable cell density (myostatin cells; [8]): increased; protein titer (myostatin cells; [9]): effect on protein titer was maintained; viable cell density (myostatin cells; [9]): not changed
O=C(/C=C/c1ccc(O)c(O)c1)O[C@@H]1C[C@](O)(C(=O)O)C[C@@H](O)[C@H]1O [Chlorogenic acid, chlorogenic acid]	115.85%	110.71%	109.35%	109.92%	129.57%	151.59%	increased protein titer	increased	increased	–
O=c1c(O)c(-c2ccc(O)c(O)c2)oc2cc(O)cc(O)c12 [Quercetin, quercetin]	–	–	119.28%	111.90%	123.11%	128.97%	–	increased	increased	protein titer (aCD137 cells [1]; feed at 0.25 mM and 1 mM): increased protein titer
catechin	98.66%	111.90%	93.52%	112.70%	102.01%	116.67%	increased protein titer	increased	increased	ammonium formation (aCD137 cells [2]; [6]): reduced; lactate formation (aCD137 cells [2]; [6]): reduced; protein titer (aCD137 cells [2]; [6]): increased; viable cell density (aCD137 cells [2]; [6]): increased; protein titer (aCD137 cells [2]; [10]): increased; viable cell density (aCD137 cells [2]; [10]): maintained; protein titer (myostatin cells; [9]): effect on protein titer was maintained; viable cell density (myostatin cells; [9]): not changed; protein titer (aCD40L cells): corresponds to an increase in catechin concentration; viable cell density (aCD40L cells): corresponds to an increase in catechin concentration
Oc1ccc(C=Cc2cc(O)cc(O)c2)cc1 [Resveratrol, resveratrol]	102.53%	112.70%	92.24%	111.90%	107.48%	144.05%	increased protein titer	increased	increased	–
Oc1ccc(-c2[o+]c3cc(O)cc(O)c3cc2O)cc1 [Pelargonidin, pelargonidin]	–	–	–	–	104.47%	118.25%	–	–	–	–
COc1cc(C2Oc3cc([C@H]4Oc5cc(O)cc(O)c5C(=O)[C@@H]4O)ccc3OC2CO)ccc1O (stereo partly drawn) [Silibinin, silibinin]	–	–	–	–	99.11%	144.44%	–	–	–	–
